The Kd is the free concentration of one partner at which half of the binding sites on the other are occupied at equilibrium, for simple one-to-one binding.

Data set [1] deals with T1, EnaH-EVH1 domain (Homo sapiens (Human), UniProt Q8N8S7). Briefly: Binding affinity to the EnaH-EVH1 domain by fluorescence titration (FT). The note with it: for Kd / FT ΔG^0 (free energy): EnaH-EVH1 domain. On the procedure: (§1) The binding data of the ligands to the domain was determined by means of isothermal titration calorimetry (ITC) or fluorescence titration (FT) and presented in the form of the dissociation constant (Kd) or the free energy (AGO). A stronger binding of the ligand to the domain is expressed by a smaller Kd value or a correspondingly more negative AGO value. The relationship between the two parameters is shown in equation (a): […]
T1 sequence (Q8N8S7 1-111): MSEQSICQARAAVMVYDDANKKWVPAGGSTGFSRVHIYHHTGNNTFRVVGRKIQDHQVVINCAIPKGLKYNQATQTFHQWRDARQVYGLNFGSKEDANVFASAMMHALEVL

The conditions of data set [2]: esterification of the free acid 43; cited from earlier work.
The next data set concerns the target VASP (Homo sapiens (Human), UniProt P50552). Particulars: cited from earlier work.
A short description of the next data set: Cell permeability. The data set is classed as in vitro ADME. The note with it: comparison among derivatives 44, 242 and 113.
Data set [3] concerns highly metastatic colorectal and breast cancer cells. Particulars: cited from earlier work.
A short description of a further data set: Metabolic stability. The data set is classed as in vitro ADME. Particulars: comparison among derivatives 44, 242 and 113.
The target of data set [4] is T1, EnaH-EVH1 domain. Briefly: Binding affinity to the EnaH-EVH1 domain by isothermal titration calorimetry (ITC). The note with it: standard errors in brackets. On the procedure: as §1
The test system of a further data set is Ena/VASP-EVH1 domain. Particulars: cited from earlier work.
The next data set addresses EVL-EVH1 (Homo sapiens (Human), UniProt Q9UI08). Particulars: cited from earlier work.
For the next data set, the target named is Ena-EVH1 (Homo sapiens (Human), UniProt Q8N8S7). The note with it: cited from earlier work.
Ena-EVH1, sequence (Q8N8S7 1-111): as above
Another data set addresses VASP-EVH1 (Homo sapiens (Human), UniProt P50552). Particulars: cited from earlier work.
Setting [5] is: fluorescence titration, Table 3, read-out: KD.

EVL-EVH1, sequence (Q9UI08 1-112): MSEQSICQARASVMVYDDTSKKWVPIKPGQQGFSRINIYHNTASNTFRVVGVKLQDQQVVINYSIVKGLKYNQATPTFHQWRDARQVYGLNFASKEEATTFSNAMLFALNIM
VASP, sequence (P50552 whole entry, species assumed): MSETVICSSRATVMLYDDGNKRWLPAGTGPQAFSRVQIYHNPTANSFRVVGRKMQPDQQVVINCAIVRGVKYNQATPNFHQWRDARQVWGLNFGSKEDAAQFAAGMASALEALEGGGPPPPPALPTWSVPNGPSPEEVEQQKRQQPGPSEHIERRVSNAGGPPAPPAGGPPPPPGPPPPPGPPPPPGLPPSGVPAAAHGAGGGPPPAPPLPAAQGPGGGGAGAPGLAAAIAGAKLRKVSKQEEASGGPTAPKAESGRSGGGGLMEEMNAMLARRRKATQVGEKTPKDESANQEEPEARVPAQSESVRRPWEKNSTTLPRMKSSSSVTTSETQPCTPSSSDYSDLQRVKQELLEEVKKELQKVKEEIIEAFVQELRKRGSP
VASP-EVH1, sequence (P50552 2-113): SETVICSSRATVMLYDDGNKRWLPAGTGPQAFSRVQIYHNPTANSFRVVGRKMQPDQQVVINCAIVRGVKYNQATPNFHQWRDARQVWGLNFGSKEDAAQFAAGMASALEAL

For the compound `CC[C@@H]1C=C[C@H]2CCN(C(=O)[C@@H]3CC[C@@H]4C=C[C@H]5CCN(C(=O)[C@H](Cc6ccccc6Cl)NC(C)=O)[C@@H]5C(=O)N43)[C@@H]2C(=O)N1CC(=O)OC` [Ac-[2Cl-Phe]-[ProM-1]-[ProM-15]-OMe], the Kd on EnaH-EVH1 domain [1] (setting [5]) was 900 nM.
For `COC(=O)CN1C(=O)[C@@H]2[C@@H](C=C[C@H]1CC(C)C)CCN2C(=O)[C@@H]1CC[C@@H]2C=C[C@H]3CCN(C(=O)[C@H](Cc4ccccc4Cl)NC(C)=O)[C@@H]3C(=O)N21` [Ac-[2Cl-Phe]-[ProM-1]-[ProM-17]-OMe], the Kd at EnaH-EVH1 domain [1] (setting [5]) was 2200 nM.
`CCC[C@@H]1C=C[C@H]2CCN(C(=O)[C@@H]3CC[C@@H]4C=C[C@H]5CCN(C(=O)[C@H](Cc6ccccc6Cl)NC(C)=O)[C@@H]5C(=O)N43)[C@@H]2C(=O)N1CC(=O)OC` [Ac-[2Cl-Phe]-[ProM-1]-[ProM-21]-OMe]: the Kd on EnaH-EVH1 domain [1] (setting [5]) was found to be 2100 nM.
Turning to `COC(=O)CN1C(=O)[C@@H]2[C@@H](C=C[C@H]1CC(C)C)CCN2C(=O)[C@@H]1CC[C@H]2C=C[C@]3(CCCN3C(=O)[C@H](Cc3ccccc3Cl)NC(C)=O)C(=O)N21` [Ac-[2Cl-Phe]-[ProM-2]-[ProM-17]-OMe], the Kd on EnaH-EVH1 domain [1] (setting [5]) was determined as 540 nM.
As to `CCC[C@@H]1C=C[C@H]2CCN(C(=O)[C@@H]3CC[C@H]4C=C[C@]5(CCCN5C(=O)[C@H](Cc5ccccc5Cl)NC(C)=O)C(=O)N43)[C@@H]2C(=O)N1CC(=O)OC` [Ac-[2Cl-Phe]-[ProM-2]-[ProM-21]-OMe], the Kd at EnaH-EVH1 domain [1] (setting [5]) turned out to be 260 nM.
Turning to `CCOC(=O)[C@@H]1CC[C@@H]2C=C[C@H]3CCN(C(=O)[C@@H]4CC[C@H]5C=C[C@]6(CCCN6C(=O)[C@H](Cc6ccccc6Cl)NC(C)=O)C(=O)N54)[C@@H]3C(=O)N21` [Ligand 44, Ac-[L-2Cl—F]-[ProM-2]-[ProM-1]-OEt, reference compound], the cell permeability entry in data set [2] is reported as “cell-permeable”. Besides, the “delocalization of VASP from focal adhesions and leading edge” value on VASP was “delocalizes the protein VASP from focal adhesions”. The cell permeabilities result in the data set “Cell permeability” is on record as “almost identical”. Also, the “FT ΔG^0 (free energy)” value on EnaH-EVH1 domain [1] (standard errors in brackets) is recorded as −30.8 (0.2) kJ/mol. In [3], the “motility of cancer cells” value is recorded as “drastically reduces the motility”. For the same compound, the metabolic stabilities result in “Metabolic stability” is given as “almost identical”.
As to `CC(=O)N[C@@H](Cc1ccccc1Cl)C(=O)N1CCC[C@]12C=C[C@@H]1CC[C@@H](C(=O)N3CC[C@@H]4C=C[C@H]5CC[C@@H](C(N)=O)N5C(=O)[C@H]43)N1C2=O` [Ligand 113, Ac-[L-2Cl—F]-[ProM-2]-[ProM-1]-NH2], in “Cell permeability”, the cell permeabilities result is recorded as “almost identical”. In addition, the Kd at EnaH-EVH1 domain [4] came out at 7000 nM. Also, the metabolic stabilities entry in “Metabolic stability” is “almost identical”.
Take `COC(=O)[C@@H]1CC[C@@H]2C=C[C@H]3CCN(C(=O)[C@@H]4CC[C@H]5C=C[C@]6(CCCN6C(=O)[C@H](Cc6ccccc6Cl)NC(C)=O)C(=O)N54)[C@@H]3C(=O)N21` [Ligand 242, Ac-[L-2Cl—F]-[ProM-2]-[ProM-1]-OMe]: in “Cell permeability”, the cell permeabilities entry is reported as “almost identical”. The “FT ΔG^0 (free energy)” value at EnaH-EVH1 domain [1] (standard errors in brackets) is −30.6 (0.4) kJ/mol. Also, the metabolic stabilities result in the data set “Metabolic stability” is on record as “almost identical”.
`CC[C@@H]1C=C[C@H]2CCN(C(=O)[C@@H]3CC[C@H]4C=C[C@]5(CCCN5C(=O)[C@H](Cc5ccccc5Cl)NC(C)=O)C(=O)N43)[C@@H]2C(=O)N1CC(=O)OC` [Ligand 247, Ac-[L-2Cl—F]-[ProM-2]-[R,S,R-Gly-ProM-15]-OMe]: the Kd stood at 470 nM at EnaH-EVH1 domain [1] (setting [5]) and 470 nM on EnaH-EVH1 domain [1] (standard errors in brackets, read-out: FT Kd). Besides, the “FT ΔG^0 (free energy)” value on EnaH-EVH1 domain [1] (standard errors in brackets) was −36.1 (0.1) kJ/mol. For the same compound, the “gain in affinity by a factor” value on EnaH-EVH1 domain [1] (compared with the ProM-1-based predecessor ligands 44 and 242) was 9-10.
As to `CCOC(=O)[C@@H]1C[C@@H](C)[C@@H]2C=C[C@H]3CCN(C(=O)[C@@H]4CC[C@H]5C=C[C@]6(CCCN6C(=O)[C@H](Cc6ccccc6Cl)NC(C)=O)C(=O)N54)[C@@H]3C(=O)N12` [Ligand 251, Ac-[L-2Cl—F]-[ProM-2]-[ProM-9]-OEt, reference compound], the “FT ΔG^0 (free energy)” value on EnaH-EVH1 domain [1] (standard errors in brackets) is recorded as −36.6 (0.3) kJ/mol.
For Ac-SFEFPPPPTEDEL-NH2 [Ligand 40], the “binding to the Ena/VASP-EVH1 domain (range in words)” value in the data set on Ena/VASP-EVH1 domain is on record as “micromolar range”.
Regarding “Ac-[L-2CI-F]-[ProM-2]-[ProM-1]-OH [Ligand 43]”, the “increased binding affinity compared to the natural peptide 42” value is 180 fold at EVL-EVH1, 180 fold on Ena-EVH1 and 280 fold on VASP-EVH1.

Values taken from patent US12195466B2, “Polyproline mimetics of proline-derived module-15” (Forschungsverbund Berlin e.V., priority 2018, dated 2025).
